Source: US20070123500A1, “Prodrugs of ERbeta-selective substances, processes for their preparation and pharmaceutical compositions comprising these compounds” (priority 2005, published 2007)

Columns and labels:
human carboanhydrase II = human carboanhydrase II (Homo sapiens, UniProt P00918); experiment: Carboanhydrase inhibition, photometric, nitrophenyl acetate conversion (CA II); assay type: biochemical; conditions: read-out: CAII IC50
Source text: (§1) b) Carboanhydrase Inhibition—Test Principle and Experimental Description:
(§2) Photometric determination of the inhibition of human carboanhydrase I or II by sulphonamides or sulphamates on microtitre plates with the aid of the enzymatic conversion of nitrophenyl acetate with a colour change from colourless to yellow.

human carboanhydrase I = human carboanhydrase I (Homo sapiens, UniProt P00915); experiment: Carboanhydrase inhibition, photometric, nitrophenyl acetate conversion (CA I); assay type: biochemical; conditions: read-out: CAI IC50
Chain of human carboanhydrase I (P00915 whole entry): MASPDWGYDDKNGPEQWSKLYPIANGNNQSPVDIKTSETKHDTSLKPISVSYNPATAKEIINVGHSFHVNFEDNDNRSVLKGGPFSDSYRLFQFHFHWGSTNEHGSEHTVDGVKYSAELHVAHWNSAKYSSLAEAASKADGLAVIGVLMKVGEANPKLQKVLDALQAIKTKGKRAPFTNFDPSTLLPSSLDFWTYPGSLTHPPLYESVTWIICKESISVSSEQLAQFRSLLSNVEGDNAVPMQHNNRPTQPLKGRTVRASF
Source text: as §1, §2

[1] = Blood-plasma concentration ratio in rat blood; assay type: in vitro ADME; conditions: freshly obtained heparinized whole blood
Protocol: (§3) a) Blood-plasma Concentration Ratio—Test Principle and Experimental Description:
(§4) The SO2—NH2 group of the substances according to the invention can lead to a concentration in erythrocytes as a result of binding to carboanhydrases.
(§5) Freshly obtained, heparinized blood from a rat is treated with a defined amount of active compound. The active compound concentration in the plasma obtained therefrom is measured against a calibration curve of spiked (with a known active compound concentration) plasma. The blood-plasma ratio is calculated from the measured concentration and the theoretical concentration.
(§6) In contrast to the results published in WO 01/91797, the concentration ratios of the compounds according to the invention between erythrocytes and plasma are not in a range from 10-1000:1, but in the range <10:1.

[2] = Blood/plasma ratio in human erythrocytes; assay type: in vitro ADME; conditions: human erythrocytes (blood)
Protocol: as §3, §4, §5, §6

Structure (SMILES) | IC50 (human carboanhydrase II) | IC50 (human carboanhydrase I) | blood plasma ratio [1] | blood plasma ratio [2]
C=C[C@]12CC[C@]3(C)[C@@H](F)[C@H](OC(=O)c4ccccc4)C[C@H]3[C@@H]1CCc1cc(O)ccc12 [17β-Fluoro-3-hydroxy-9α-vinyloestra-1,3,5(10)-trien-16α-yl benzoate, reference compound] | > 10 µM | > 10 µM | – | –
C=C[C@]12CC[C@]3(C)[C@@H](F)[C@H](OC(=O)c4cccc(S(N)(=O)=O)c4)C[C@H]3[C@@H]1CCc1cc(O)ccc12 [17β-Fluoro-3-hydroxy-9α-vinyloestra-1,3,5(10)-trien-16α-yl 3′-sulphamoylbenzoate] | 0.72 µM | 3.7 µM | ~3.7 | 1.2
C[C@]12CC[C@@H]3c4ccc(OS(N)(=O)=O)cc4CC[C@H]3[C@@H]1CC[C@@H]2O [Oestradiol 3-sulphamate, reference compound] | – | 0.157 ± 0.0106 µM | – | –
C=C[C@]12CC[C@]3(C)C[C@H](OC(=O)c4cccc(S(N)(=O)=O)c4)C[C@H]3[C@@H]1CCc1cc(O)ccc12 [3-Hydroxy-9α-vinyloestra-1,3,5(10)-trien-16α-yl 3′-sulphamoylbenzoate] | 0.49 µM | 3.4 µM | – | –
